For data set [1] the following is noted: 298.15 K, 101.33 kPa, Liquid.
Data set [2] in a line: refractive index (Na D-line) (dimensionless). As to conditions: 298.15 K; 101.33 kPa; Liquid; Standard Abbe refractometry.

This passage reports mass density and refractive index results from the NIST ThermoML archive (doi:10.1016/j.jct.2008.01.025).

Numbers after ± are expanded uncertainties.

In general, mass density refers to the mass of a sample divided by its volume. As a reminder, the refractive index is a measure of how strongly the sample bends light. As for `CCCCCCCCCCCC` [dodecane], the mass density in data set [1] turned out to be 745.32 ± 0.91 kg/m3. In addition, in data set [2], the refractive index is listed as 1.42011 ± 0.0004.

On to `CCCCCCCC[n+]1ccn(C)c1.F[B-](F)(F)F` [1-methyl-3-octylimidazolium tetrafluoroborate], for which the mass density in data set [1] (Vibrating tube method) came to 1104.42 ± 2.3 kg/m3. In data set [2], the refractive index is 1.43329 ± 0.00069.

In the case of `CCCCCCC` [heptane], the mass density in data set [1] amounted to 679.466 ± 0.66 kg/m3. Further, the refractive index in data set [2] stood at 1.38517 ± 0.00036.

As to `c1ccsc1` [thiophene], in data set [1], the mass density was 1058.5 ± 0.28 kg/m3. The refractive index in data set [2] came out at 1.52581 ± 0.00036.

On to `CCCCCCCCCCCCCCCC` [hexadecane], for which the mass density in data set [1] stood at 771.15 ± 0.85 kg/m3. In addition, the refractive index in data set [2] was found to be 1.43232 ± 0.0004.
